According to patent US6605628B1, “Method of using 5-(arysulfonyl)-, 5-(arylsulfanyl)-and 5-(arylsulfanyl)thiazolidine-2,4-diones for inhibition of farnesyl-protein transferase” (Wyeth Holdings Corporation, priority 2001, dated 2003):

What was measured:
FPTase [1] = molecular target: T1, FPTase (Homo sapiens, UniProt P49354+P49356); test: in vitro FTase Inhibition Assay, H-Ras used as substrate for farnesylation; assay type: biochemical
Experimental: (§1) Enzyme test procedure: FPTase inhibition in vitro assay was performed according to James, G. L., Brown, M. S., and Goldstein, J. L., Methods in Enzymology, 1995, 255, 38-46; and Garcia, M. A., et al., J. Biol. Chem., 1993, 268, 18415-18420.
(§2) Materials—Purified FPTase (Moomaw, J. F. and Casey, P. J., J. Biol. Chem., 1992, 267, 17438-17443), purified His6-Ras, inhibitor compounds at 10 mg/ml or 10 mM in 100% DMSO, ^3H-FPP (50,000 dpm/pmol) Amersham, TCA/SDS (6%/2%), TCA (6%), Glass fiber filters ([…]), vacuum manifold or 96 well filtration plates.
(§3) Methods—1. Dilute FPTase inhibitors from stock solutions to 2.5× in 2.5% DMSO, 10 mM DTT, 0.5% octyl-B-glucoside. 2. Solution #1 is added to FPTase reaction in a volume of […]. 3. Standard reaction mix, […], contains 50 mM Tris (7.5), 10 mM ZnCl2, 3 mM MgCl2, 20 mM KCl, 5 mM DTT, 0.2% octyl-B-glucoside, 1% DMSO, […] His6-Ras, 10 ng FPTase, and various concentrations of FPTase inhibitors. 4. Incubate for 30-90 min at 25° C. 5. Stop reactions with TCA/SDS (6%/2%), hold at 4° C. for 45-60 min. 6. Filter by manifold or 96 well plate, wash filter 3-5× with TCA (6%). 7. Add scintillant to filters, measure ^3H-FPP incorporation into Ras protein.
(§4) Analysis of Results—Percent inhibition by test compounds is determined by the following:
(§5) (cpm from precipitated Ras with test compounds)−(background cpm)×100=% inhibition.
(§6) (cpm from precipitated Ras without test compounds)−(background cpm)

FPTase [2] = molecular target: T1, FPTase; test: in vitro FTase Inhibition Assay, K-Ras used as substrate for farnesylation; assay type: biochemical; conditions: Table I
Experimental: as §1, §2, §3, §4, §5, §6

[3] = Table II, read-out: IC50 (wi. H-Ras)

| Compound | IC50 (FPTase [1]; Table I, read-out: IC50 H-Ras*) [nM] | IC50 (FPTase [2]) [nM] | IC50 (FPTase [1]; [3]) [nM] |
| --- | --- | --- | --- |
| 5-(4-Iodobenzenesulfonyl)-5-[5-(2-methyl-4-nitrophenyl)pent-4-ynyl]-thiazolidine-2,4-dione [Example 131] | 6 to 32 | 80 to 310 | – |
| 5-[5-(2-Methyl-4-nitrophenyl)pent-4-ynyl]-5-[4-(pyridin-4-yloxy)-benzenesulfonyl]thiazolidine-2,4-dione [Example 128] | 1 to 32 | 20 to 220 | – |
| 5-[5-(4-Chloro-2-methylphenyl)pent-4-ynyl]-5-(4-trifluoromethoxybenzenesulfonyl)-thiazolidine-2,4-dione [Example 140] | 150 to 300 | 1000 to 3600 | – |
| O=C1NC(=O)C(CCCC#Cc2ccc(Cl)cc2)(Sc2ccc(F)cc2)S1 (stereo not drawn) [Example 96, 5-[5-(4-Chlorophenyl)pent-4-ynyl]-5-(4-fluorophenylsulfanyl)-thiazolidine-2,4-dione] | 700 | – | – |
| COc1ccc(S(=O)(=O)C2(CC#Cc3cccnc3)SC(=O)NC2=O)cc1 (stereo not drawn) [Example 167, 5-(4-Methoxybenzenesulfonyl)-5-(3-pyridin-3-ylprop-2-ynyl)-thiazolidine-2,4-dione] | 1500 | – | – |
| Cc1ccc(S(=O)(=O)C2(CC#Cc3cccs3)SC(=O)NC2=O)cc1 (stereo not drawn) [Example 168, 5-(3-Thiophen-2-yl-prop-2-ynyl)-5-(toluene-4-sulfonyl)-thiazolidine-2,4-dione] | 280 | – | – |
| COc1ccc(S(=O)(=O)C2(CCCC#Cc3ccc(Cl)cc3)SC(=O)N(CCCn3ccnc3)C2=O)cc1 (stereo not drawn) [Example 233, 5-[5-(4-Chlorophenyl)pent-4-ynyl]-3-(3-imidazol-1-yl-propyl)-5-(4-methoxybenzenesulfonyl)-thiazolidine-2,4-dione] | 2900 | – | – |
| O=C1NC(=O)C(CC#Cc2ccc(Cl)cc2)(S(=O)(=O)c2ccc3ccccc3c2)S1 (stereo not drawn) [Example 239, 5-[3-(4-Chloro-phenyl)-prop-2-ynyl]-5-(napthalene-2-sulfonyl)-thiazolidine-2,4-dione] | – | – | 700 |
| O=C1NC(=O)C(CC#Cc2ccccc2)(S(=O)(=O)c2ccccc2)S1 (stereo not drawn) [Example 241, 5-Benzenesulfonyl-5-[3-phenyl-prop-2-ynyl]-thiazolidine-2,4-dione] | – | – | 1500 |
| O=C1NC(=O)C(CC#Cc2ccccc2)(S(=O)(=O)c2ccc(Cl)cc2)S1 (stereo not drawn) [Example 242, 5-(4-Chloro-benzenesulfonyl)-5-(3-phenyl-prop-2-ynyl)-thiazolidine-2,4-dione] | – | – | 1000 |
| O=C1NC(=O)C(CC#Cc2ccccc2)(S(=O)(=O)c2ccc3ccccc3c2)S1 (stereo not drawn) [Example 250, 5-(Naphthalene-2-sulfonyl)-5-(3-phenyl-prop-2-ynyl)-thiazolidine-2,4-dione] | – | – | 1500 |
| Cc1cccc(S(=O)(=O)C2(CC#Cc3ccc(Cl)cc3)SC(=O)NC2=O)c1 (stereo not drawn) [Example 256, 5-[3-(4-Chloro-phenyl)-prop-2-ynyl]-5-(toluene-3-sulfonyl)-thiazolidine-2,4-dione] | – | – | 800 |
| O=C1NC(=O)C(CC#Cc2ccccc2Cl)(S(=O)(=O)c2ccccc2)S1 (stereo not drawn) [Example 258, 5-Benzenesulfonyl-5-[3-(2-chloro-phenyl)-prop-2-ynyl]-thiazolidine-2,4-dione] | – | – | 2000 |
| O=C1NC(=O)C(CC#Cc2ccc(Cl)cc2)(S(=O)(=O)c2ccc3ccccc3n2)S1 (stereo not drawn) [Example 265, 5-[3-(4-Chloro-phenyl)-prop-2-ynyl]-5-(quinoline-2-sulfonyl)-thiazolidine-2,4-dione] | – | – | 1500 |
| Cc1ccc(SC2(CC#Cc3ccc(Cl)cc3)SC(=O)NC2=O)cc1 (stereo not drawn) [Example 267, 5-[3-(4-Chloro-phenyl)-prop-2-ynyl]-5-(p-tolylsulfanyl)-thiazolidine-2,4-dione] | – | – | 5000 |

More lines, now with the values ahead:

| IC50 (FPTase [1]; Table I, read-out: IC50 H-Ras*) [nM] | IC50 (FPTase [2]) [nM] | IC50 (FPTase [1]; [3]) [nM] | Compound |
| --- | --- | --- | --- |
| – | – | 500 | O=C1NC(=O)C(CC#Cc2ccc(Cl)cc2)(S(=O)(=O)c2ccccc2)S1 (stereo not drawn) [Example 240, 5-Benzenesulfonyl-5-[3-(4-chloro-phenyl)-prop-2-ynyl]-thiazolidine-2,4-dione] |
| – | – | 300 | O=C1NC(=O)C(CC#Cc2ccc(Cl)cc2)(S(=O)(=O)c2ccc(F)cc2)S1 (stereo not drawn) [Example 243, 5-[3-(4-Chloro-phenyl)-prop-2-ynyl]-5-(4-fluoro-benzenesulfonyl)-thiazolidine-2,4-dione] |
| – | – | 100 | O=C1NC(=O)C(CC#Cc2ccc(Cl)cc2)(S(=O)(=O)c2ccc(Cl)cc2)S1 (stereo not drawn) [Example 244, 5-(4-Chloro-benzenesulfonyl)-5-[3-(4-chloro-phenyl)-prop-2-ynyl]-thiazolidine-2,4-dione] |
| – | – | 50 | O=C1NC(=O)C(CC#Cc2ccc(Cl)cc2)(S(=O)(=O)c2ccc(Br)cc2)S1 (stereo not drawn) [Example 245, 5-(4-Bromo-benzenesulfonyl)-5-[3-(4-chloro-phenyl)-prop-2-ynyl]-thiazolidine-2,4-dione] |
| – | – | 300 | Cc1ccc(S(=O)(=O)C2(CC#Cc3ccc(F)cc3)SC(=O)NC2=O)cc1 (stereo not drawn) [Example 246, 5-[3-(4-Fluoro-phenyl)-prop-2-ynyl]-5-(toluene-4-sulfonyl)-thiazolidine-2,4-dione] |
| – | – | 300 | Cc1ccc(C#CCC2(S(=O)(=O)c3ccc(C)cc3)SC(=O)NC2=O)cc1 (stereo not drawn) [Example 247, 5-(Toluene-4-sulfonyl)-5-[3-(p-tolyl)-prop-2-ynyl]-thiazolidine-2,4-dione] |
| – | – | 450 | O=C1NC(=O)C(CC#Cc2ccccc2)(S(=O)(=O)c2ccc(Br)cc2)S1 (stereo not drawn) [Example 248, 5-(4-Bromo-benzenesulfonyl)-5-(3-phenyl-prop-2-ynyl)-thiazolidine-2,4-dione] |
| – | – | 400 | COc1ccc(S(=O)(=O)C2(CC#Cc3ccc(Cl)cc3)SC(=O)NC2=O)cc1 (stereo not drawn) [Example 249, 5-[3-(4-Chloro-phenyl)-prop-2-ynyl]-5-(4-methoxy-benzenesulfonyl)-thiazolidine-2,4-dione] |
| – | – | 150 | Cc1ccc(S(=O)(=O)C2(CC#Cc3ccc(C(F)(F)F)cc3)SC(=O)NC2=O)cc1 (stereo not drawn) [Example 251, 5-(Toluene-4-sulfonyl)-5-[3-(4-trifluoromethyl-phenyl)-prop-2-ynyl]-thiazolidine-2,4-dione] |
| – | – | 80 | COc1ccc(C#CCC2(S(=O)(=O)c3ccc(C)cc3)SC(=O)NC2=O)cc1 (stereo not drawn) [Example 252, 5-[3-(4-Methoxy-phenyl)-prop-2-ynyl]-5-(toluene-4-sulfonyl)-thiazolidine-2,4-dione] |
| – | – | 90 | Cc1ccc(S(=O)(=O)C2(CC#Cc3ccc(Br)cc3)SC(=O)NC2=O)cc1 (stereo not drawn) [Example 253, 5-[3-(4-Bromo-phenyl)-prop-2-ynyl]-5-(toluene-4-sulfonyl)-thiazolidine-2,4-dione] |
| – | – | 500 | O=C1NC(=O)C(CC#Cc2ccc(C(F)(F)F)cc2)(S(=O)(=O)c2ccccc2)S1 (stereo not drawn) [Example 254, 5-Benzenesulfonyl-5-[3-(4-trifluoromethyl-phenyl)-prop-2-ynyl]-thiazolidine-2,4-dione] |
| – | – | 150 | O=C1NC(=O)C(CC#Cc2ccc(F)cc2)(S(=O)(=O)c2ccc(Cl)cc2)S1 (stereo not drawn) [Example 255, 5-(4-Chloro-benzenesulfonyl)-5-[3-(4-fluoro-phenyl)-prop-2-ynyl]-thiazolidine-2,4-dione] |
| – | – | 35 | Cc1ccc(S(=O)(=O)C2(CC#Cc3cccc(Cl)c3)SC(=O)NC2=O)cc1 (stereo not drawn) [Example 257, 5-[3-(3-Chloro-phenyl)-prop-2-ynyl]-5-(toluene-4-sulfonyl)-thiazolidine-2,4-dione] |
| – | – | 150 | O=C1NC(=O)C(CC#Cc2cc(C(F)(F)F)cc(C(F)(F)F)c2)(S(=O)(=O)c2ccccc2)S1 (stereo not drawn) [Example 259, 5-Benzenesulfonyl-5-[3-(3,5-bis-trifluoromethyl-phenyl)-prop-2-ynyl]-thiazolidine-2,4-dione] |
| – | – | 100 | Cc1ccc(S(=O)(=O)C2(CC#Cc3cc(C(F)(F)F)cc(C(F)(F)F)c3)SC(=O)NC2=O)cc1 (stereo not drawn) [Example 260, 5-[3-(3,5-bis-Trifluoromethyl-phenyl)-prop-2-ynyl]-5-(toluene-4-sulfonyl)-thiazolidine-2,4-dione] |
| – | – | 300 | O=C1NC(=O)C(CC#Cc2cccc(Cl)c2)(S(=O)(=O)c2ccccc2)S1 (stereo not drawn) [Example 261, 5-Benzenesulfonyl-5-[3-(3-chloro-phenyl)-prop-2-ynyl]-thiazolidine-2,4-dione] |
| – | – | 70 | Cc1ccc(S(=O)(=O)C2(CC#Cc3ccc(Cl)cc3)SC(=O)NC2=O)cc1 (stereo not drawn) [Example 262] |
| – | – | 150 | O=C1NC(=O)C(CC#Cc2ccc(Br)cc2)(S(=O)(=O)c2ccc(Cl)cc2)S1 (stereo not drawn) [Example 263, 5-[3-(4-Bromo-phenyl)-prop-2-ynyl]-5-(4-chloro-benzenesulfonyl)-thiazolidine-2,4-dione] |
| – | – | 300 | O=C1NC(=O)C(CC#Cc2ccc(C(F)(F)F)cc2)(S(=O)(=O)c2ccc(F)cc2)S1 (stereo not drawn) [Example 264, 5-(4-Fluoro-benzenesulfonyl)-5-[3-(4-trifluoromethyl-phenyl)-prop-2-ynyl)-thiazolidine-2,4-dione] |
| – | – | 500 | O=C1NC(=O)C(CC#Cc2cc(C(F)(F)F)cc(C(F)(F)F)c2)S1 (stereo not drawn) [Example 266, 5-[3-(3,5-bis-Trifluoromethyl-phenyl)-prop-2-ynyl]-thiazolidine-2,4-dione] |
